Laboratory results reported in patent EP1131073B1, “USE OF STAUROSPORINE DERIVATIVES FOR TREATING OCULAR NEOVASCULAR DISEASES” (Novartis AG, priority 1998, dated 2000).

Assays:
[1] = test system: endothelial cells of mature vessels; assay: Effect on mature retinal vessels of adult mice, endothelial staining with image analysis; assay type: in vivo, Adult C57BL6J mice; details: 600 mg/kg by gavage once a day for 5 days
Description: (§1) After 5 days of treatment, the mice are sacrificed, eyes are rapidly removed and frozen in optimum cutting temperature embedding compound (OCT; Miles Diagnostics, Elkhart, IN) or fixed in 10% phosphate-buffered formalin and embedded in paraffin. Adult C57BL6J mice are also treated by gavage with the drug or vehicle and after 5 days, they are sacrificed and their eyes are processed for frozen or paraffin sections.

[2] = test system: choroidal neovascularization; assay: Laser-induced rupture of Bruch's membrane, choroidal neovascularization in mice; assay type: in vivo, C57BL/6J mice; details: 400 mg/kg/day orally by gavage
Description: C57BL/6J mice are treated in accordance with the Association for Research in Vision and Ophthalmology resolution for the treatment of animals. […] J Path, in press. Briefly, 4 to 5 week old male C57BL/6J mice are anesthetized with ketamine hydrochloride (100 mg/kg body weight) and the pupils are dilated with 1% tropicamide. Three bums of krypton laser photocoagulation (100 µm spot size, 0.1 seconds duration, 150 mW) are delivered to each retina using the slit lamp delivery system of a Coherent Model 920 Photocoagulator and a hand held cover slide as a contact lens. Bums are performed in the 9, 12, and 3 o'clock positions of the posterior pole of the retina. Production of a bubble at the time of laser, which indicates rupture of Bruch's membrane, is an important factor in obtaining CNV, so only mice in which a bubble is produced for all three bums are included. […] After 14 days, the mice are killed with an overdose of pentobarbital sodium, and their eyes are rapidly removed and frozen in optimal cutting temperature embedding compound (OCT). Frozen serial sections (10 µm) are cut through the entire extent of each burn and histochemically stained with biotinylated griffonia simplicifolia lectin B4 (Vector Laboratories, Burlingame, CA), which selectively binds to endothelial cells. Slides are incubated in methanol/H2O2 for 30 minutes at 4°C, washed with 0.05 M Tris-buffered saline, pH 7.4 (TBS), and incubated for 30 minutes in 10% normal swine serum. Slides are rinsed with 0.05M TBS and incubated 2 hours at 37°C with biotinylated lectin. After being rinsed with 0.05M TBS, slides are incubated with Streptavidin-phosphatase (Kirkegaard and Perry Laboratories, Cabin John, MD) for 30 minutes at room temperature. […]
To perform quantitative assessments, lectin-stained sections are examined with an Axioskop microscope (Zeiss, Thornwood, NY) and images are digitized using a 3 CCD color video camera (IK-TU40A, Toshiba, Tokyo, Japan) and a frame grabber. […]

[3] = test system: retinal neovascularization; assay: Oxygen-induced ischemic retinopathy in mice, lectin-stained retinal sections with image analysis; assay type: in vivo, C57/BL6J mice; details: for clumps of neovascularization on the surface of the retina: compared to vehicle-treated control mice
Description: Ischemic retinopathy is produced in C57/BL6J mice by a method described by Smith et al., Oxygen-induced Retinopathy in the Mouse, Invest. Ophthalmol. Vis. Sci. 35, 101-111 (1994). Seven-day-old mice and their mothers are placed in an airtight incubator and exposed to an atmosphere of 75 ± 3% oxygen for 5 days. Incubator temperature is maintained at 23 ± 2°C, and oxygen is measured every 8 hours with an oxygen analyzer. After 5 days, the mice are removed from the incubator, placed in room air, and subjected to a drug treatment. […] Vehicle (1% DMSO) or vehicle containing various concentrations of the drug (volume = 10 µl per gram body weight) is placed in the stomach by gavage.
as §1
Slides are incubated in methanol/H2O2 for 10 minutes at 4°C, washed with 0.05 M Tris-buffered saline, pH 7.6 (TBS), and incubated for 30 minutes in 10% normal porcine serum. Slides are incubated 2 hours at room temperature with biotinylated lectin and after rinsing with 0.05M TBS, they are incubated with avidin coupled to peroxidase (Vector Laboratories) for 45 minutes at room temperature. After being washed for 10 minutes with 0.05 M TBS, slides are incubated with diaminobenzidine to give a brown reaction product. Some slides are counterstained with hematoxyln and all were mounted with Cytoseal.
To perform quantitative assessments, 10 µm serial sections are cut through half of each eye and sections roughly 50-60 µm apart are stained with lectin, providing 13 sections per eye for analysis. Lectin-stained sections are examined with an Axioskop microscope (Zeiss, Thornwood, NY) and images are digitized using a 3 CCD color video camera (IK-TU40A, Toshiba, Tokyo, Japan) and a frame grabber. Image-Pro Plus software (Media Cybernetics, Silver Spring, MD) is used to delineate lectin-stained cells on the surface of the retina and their area is measured. The mean of the 13 measurements from each eye is used as a single experimental value.

[4] = test system: retinal vascular development; assay: Retinal vascular development in neonatal mice, fluorescein-dextran perfused retinal flat mounts; assay type: in vivo, newborn C57/BL6J mice; details: 100 mg/kg daily subcutaneous
Description: Litters of newborn C57/BL6J mice (neonatal mice) are divided into treatment and control groups which received daily subcutaneous injections of 100 mg/kg of the drug or vehicle, respectively. At 7 or 10 days of age, the mice are anesthetized with ether, and perfused with 1 ml of phosphate-buffered saline containing 50 mg/ml of fluorescein-labeled dextran (2x10^6 average mw, Sigma, St. Louis, MO) as described by Tobe et al., Evolution of Neovascularization in Mice with Overexpression of VEGF in Photoreceptors, Invest. Ophthalmol. Vis. Sci. 39, 180-188 (1998). The eyes are removed and fixed for 1 hour in 10% phosphate-buffered formalin. The cornea and lens are removed and the entire retina is carefully dissected from the eyecup. Radially cuts are made from the edge of the retina to the equator in all 4 quadrants, and the retina is flat-mounted in Aquamount with photoreceptors facing upward. The flat mounts are examined by fluorescence microscopy, and the images are digitized using a 3 CCD color video camera and a frame grabber. Image-Pro™ Plus is used to measure the distance from the center of the optic nerve to the leading front of developing retinal vessels in each quadrant and the mean is used as a single experimental value.

[5] = 300 mg/kg twice a day by gavage

CO[C@@H]1[C@H](N(C)C(=O)c2ccccc2)C[C@H]2O[C@]1(C)n1c3ccccc3c3c4c(c5c6ccccc6n2c5c31)C(=O)NC4 [NBS, N-benzoyl-staurosporine]
toxicity to endothelial cells of mature vessels [1]: not toxic | total area of endothelial staining in the retina or the appearance of retinal vessels ([1]; compared to vehicle-treated mice): no difference | integrated area of lectin staining per lesion ([2]; 14 days, vehicle alone 0.0695621 ± 0.0073960 mm^2, p=0.004): 0.009018 ± 0.001754 mm^2 | appearance of overlying retinal vessels ([2]; two weeks after laser): appear normal | choroidal neovascularization at the site of each laser-induced rupture of Bruch's membrane ([2]; two weeks after laser): very little if any | endothelial cell staining on and in the retinas (image analysis) ([3]; 60 mg/kg once a day, compared to vehicle-treated mice): significantly less | endothelial staining within the retina ([3]; 60 mg/kg twice a day by gavage): some decrease | clumps of neovascularization on the surface of the retina ([3]; 60 mg/kg twice a day by gavage): less than clumps in the retina of the vehicle-treated control mice | endothelial staining within the retina [3, 5]: some decrease | clumps of neovascularization on the surface of the retina [3, 5]: less than clumps in the retina of the vehicle-treated control mice | endothelial cell staining in the inner nuclear layer and outer plexiform layer ([3]; 600 mg/kg once a day for 5 days): striking absence | endothelial cell staining on the surface and within the retina ([3]; 600 mg/kg once a day for 5 days by gavage, compared to vehicle-treated mice): dramatic decrease | endothelial cell staining within the retina ([3]; 600 mg/kg once a day for 5 days, compared to nonischemic mice): less than that of the nonischemic mice | endothelial cell staining on and in the retinas (image analysis) ([3]; 600 mg/kg once a day, compared to vehicle-treated mice): significantly less | extension of retinal vessels ([4]; at 7 days of age): only extend slightly more than halfway to the periphery | extension of superficial capillary bed ([4]; at 10 days of age): has not yet reached the edge of the retina
